# Measured values reported in US10933031B2, “Use of guaiacol for the prevention and treatment of glycogen storage disease” (THE TRUSTEES OF COLUMBIA UNIVERSITY IN THE CITY OF NEW YORK, priority 2016, dated 2021).
# “Also recorded” adds a separate entry of the source.
# Assays:
# [1] = system: HepG2 liver epithelial cell line; assay: Glycogen content in HepG2 cells cultured with cobalt chloride; type: cell-based; details: DMEM supplemented with 150 μM cobalt chloride; results not shown
# Procedure: (§1) One hit was obtained corresponding to a compound that decreased polyglucosan synthesis more than 50% at 6.75 μM concentration (FIG. 3). […] This compound identified was guaiacol and has been used as an expectorant and flavoring food additive but is no longer being marketed for medical purposes.
# GYS1 = assay: Western blot of GYS1 phosphorylation in muscle extracts after oral guaiacol; type: in vivo, mouse; details: wild type mice, 45-720 mg/kg oral gavage, muscle extracts two hours after administration
# Source text: FIG. 4 is a Western blot of GYS1 and GAPDH in muscle extracts obtained from wild type mice two hours after administration with guaiacol, suspended in water, in the indicated dosage amounts on the top panel by oral gavage.
# Glycogen synthase is an allosteric enzyme that can be activated by glucose 6 phosphate or inactivated by phosphorylation of a serine residue on the enzyme. Thus, the phosphorylation status of GYS1 in muscle extracts which is the indicator of glycogen synthase activity was determined.
# Wild type mice were administered guaiacol suspended in water at concentrations of 45, 90, 180, 360, and 720 mg/kg. Two hours after administration, muscle extracts were obtained and Western blot analysis of GYS1 was performed.
# Gbe1^ys/ys mice [2] = assay: Tissue glycogen content in treated wild type and Gbe1^ys/ys mice; type: in vivo, mouse
# Procedure: FIG. 5 is a graph depicting the results of heart, brain, muscle and liver glycogen content in wild type and Gbe1^ys/ys mice, and guaiacol-treated wild-type and Gbe1^ys/ys mice. Glycogen was measured after a 16 hour fast (n=4 for each treatment). Glycogen content is expressed as percent glucose mg/gram fresh tissue. Error bars represent the mean±SD, P<0.001 where indicated (*).
# A mouse model of GBE deficiency created by knocking in via homologous recombination the most common human GBE1 mutation (p.Y329S) found in Ashkenazi Jewish patients has been developed by the inventors and designated Gbe1^ys/ys (Akman et al. 2015).
# After one month of treatment, four mice from each group (untreated wild type and Gbe1^ys/ys mice and guaiacol-treated wild type and Gbe1^ys/ys mice) were sacrificed and tissue glycogen contents were measured as described by Pederson et al. 2004.
# Gbe1^ys/ys mice [3] = assay: Lifespan and disease signs of Gbe1^ys/ys mice on guaiacol in drinking water; type: in vivo, mouse
# Procedure: FIG. 9 is a Kaplan-Meier plot which illustrates the incidence of death in Gbe1^ys/ys (n=47), versus wild type mice (n=29), and guaiacol-treated Gbe1^ys/ys and wild type mice (n=4 each).
# (§2) Mice were treated with guaiacol in drinking water for 12 months every other day by preparing fresh guaiacol solution in water (3.8 g/liter or 3.1 ml/liter) considering the fact that an adult mouse drinks 6 ml water every day (Bachamov et al. 2002).
# Treated Gbe1^ys/ys mice lived up to 24 months at time they were sacrificed as required by the protocol (FIG. 9).
# [4] = Glucose tolerance test (blood glucose); type: in vivo, mouse; details: after overnight fasting and glucose injection
# Procedure: Blood glucose content was measured at times indicated in guaiacol-treated and untreated wild type and APBD (p.Y329s) mice. n=3 in each group.
# After overnight fasting, mice were injected glucose and the blood glucose levels were measured.
# [5] = system: AMP kinase alpha (AMPK-α); assay: Western blot of AMP kinase Thr 172 phosphorylation; type: in vivo, mouse; details: tissue extracts of treated wild type and Gbe1^ys/ys mice, relative to total AMPK-α
# Source text: FIG. 7 is a Western blot of phospho AMPK-α and total AMPK in muscle extracts obtained from wild type and Gbe1^ys/ys mice, and guaiacol-treated wild type and Gbe1^ys/ys mice.
# Glycogen synthesis and breakdown is regulated according to the energy state of the cell. When glucose is abundant amount of ATP is high and AMP kinase remains un-phosphorylated. However when glucose concentrations go down so do the ATP levels because it is being converted to ADP and AMP.
# [6] = Tolerability: grip tests and weight gain or loss; type: in vivo, mouse; details: 22.5 mg/kg in drinking water
# Procedure: as §2
# [7] = HPLC of AMP, ADP, ATP and adenosine in muscle extracts; type: in vivo, mouse; details: for decrease in adenosine levels: muscle
# Source text: FIG. 8 is a graph depicting results of high performance liquid chromatography analysis of adenosine in muscle of wild type and Gbe1^ys/ys mice, and guaiacol-treated wild type and Gbe1^ys/ys mice.
# […], the heterotrimeric protein AMPK is formed by α, β, and γ subunits. Each of these three subunits takes on a specific role in both the stability and activity of AMPK. (Stapleton et al. 1996). Specifically, the γ subunit includes four particular cystathionine beta synthase (CBS) domains giving AMPK its ability to sensitively detect shifts in the AMP: ATP ratio. The four CBS domains create two binding sites for AMP commonly referred to as Bateman domains. Binding of one AMP to a Bateman domain cooperatively increases the binding affinity of the second AMP to the other Bateman domain (Akman et al. 2007).
# Gbe1^neo/− MEF = assay: High throughput PAS-fluorescence screen of polyglucosan bodies in GBE-deficient MEF; type: cell-based, mouse
# Procedure: Skin fibroblasts from wild type or Gbe1^neo/− E17.5 embryos were cultured to establish the MEF cell line by methods known in the art (FIG. 2). Diastase-resistant PAS positive staining was used specifically for carbohydrate staining. After paraformaldehyde fixation, cells were washed with PBS and normal glycogen was degraded by alpha-amylase digestion. The residual polysaccharides and PG in MEF were treated with periodic acid to oxidize sugars to aldehydes, which react with the Schiff reagent and stain pink. Although PAS staining was very efficient to detect PG (see FIGS. 2A, 2B, 2C, 2E, and 2G), the IN Cell 2000 cell detection system relies on fluorescence staining. PAS staining itself is fluorescent due to pararosanilin reagents, such as Rhodamine and TRITC, which can be excited (400 nm) and emits light detectable in red range ([…]) (FIGS. 2D, 2F and 2H).
# To set up the automated detection system, control Gbe1^+/+ and Gbe1^neo/− MEFs were plated at different density on 384-well plates in order to obtain optimal cell density. A second important optimization regarded the diastase digestion of normal glycogen, keeping in mind that PGBs are resistant to diastase digestion and longer incubation times and/or higher enzyme concentrations are needed to digest PG. […] After diastase digestion, they were stained with PAS, and, after brief nuclear staining with Hoechst, the plates were analyzed by IN Cell 2000, GE Healthcare (Piscataway, N.J.), a high-throughput imaging system capable of performing high-content analysis using a wide array of micro plates. […] Automated quantitative results were obtained in terms of relative fluorescence per cell. Relative fluorescence per positive cells were analyzed and its significance were determined by z score according to plate average or by B score if there is a positional effect related to row and column that occurs in multi well plate cell cultures (Brideau et al. 2003). […]
# 1500 cells were plated per well to 384-well plates. […] The following day the cells were stained and analyzed as set forth in Example 3.
# MEF = assay: Glycogen content of MEF grown in cobalt supplemented media; type: cell-based, mouse; details: n=3, FIG. 3B
# Procedure: FIGS. 3A-3C show guaiacol decreases glycogen synthesis. […] FIG. 3C is a graph showing the results of relative glycogen content of cells grown in cobalt supplemented media after 3 days of guaiacol treatment at concentrations indicated on horizontal axis.
# as §1
# [8] = one month of treatment, 16 hour fast, n=4
# [9] = treated Gbe1^ys/ys mice, long-term treatment
structure (smiles),measurement,setting,value
COc1ccccc1O [guaiacol],glycogen content in HepG2,[1],decreased glycogen content
same,phosphorylation of GYS1 compared to total GYS1 protein,GYS1,increased
same,"glycogen in brain, muscle and heart",Gbe1^ys/ys mice [2]; as restated in Example 7,increased
same,glycogen content in the brain and muscle compared to untreated Gbe1^ys/ys mice,"Gbe1^ys/ys mice [2]; later treatments, treated Gbe1^ys/ys mice",slight increase
same,glycogen content in brain heart and muscle,Gbe1^ys/ys mice [2]; [8],did not change
same,glycogen content of the liver,Gbe1^ys/ys mice [2]; [8],significant decrease; also recorded: decreased
same,lifespan of treated mice,"Gbe1^ys/ys mice [3]; Gbe1^ys/ys mice, guaiacol in drinking water, sacrificed at 24 months as required by protocol",up to 24 months
same,gait of treated mice,Gbe1^ys/ys mice [3]; treated Gbe1^ys/ys mice,spastic gait
same,penile prolapse in male mice,Gbe1^ys/ys mice [3]; treated Gbe1^ys/ys mice,did not have penile prolapse; also recorded: preventing penile prolapse
same,PG content in the liver,Gbe1^ys/ys mice [3]; [9],decreased PG content
same,polyglucosan in the muscle brain and heart,Gbe1^ys/ys mice [3]; [9],slightly higher polyglucosan
same,duration of high blood glucose versus control mice,[4],remained high longer
same,blood glucose level versus control mice,"[4]; wild type and APBD (p.Y329s) mice, n=3",higher blood glucose; also recorded: increases blood glucose concentration
same,Thr 172 phosphorylation of AMP kinase,[5],increased Thr 172 phosphorylation
same,"effect on animal behavior (grip tests, weight gain or loss)",[6],did not adversely affect the animal's behavior
same,"AMP, ADP and ATP levels","[7]; muscle extracts, treated vs untreated wild type or Gbe1^ys/ys mice",no significant difference
same,decrease in adenosine levels,"[7]; Gbe1^ys/ys mice, n=4, p<0.03",48%
same,decrease in adenosine levels,"[7]; wild-type mice, n=4, p<0.02",53%
same,decrease of polyglucosan synthesis,"Gbe1^neo/− MEF; 6.75 μM, three days treatment, JHCCL screen",more than 50%
same,PAS stained granules in the cytosol (diastase treated),"Gbe1^neo/− MEF; 10 μM guaiacol, MEF cultures, FIG. 3A",decreased PAS stained granules
same,decrease of polyglucosan synthesis and accumulation,"Gbe1^neo/− MEF; JHCCL screen, concentration not stated",50%
same,glycogen content in MEF,MEF,decrease of glycogen content
